Data taken from patent publication US11542240B2, “STK19 inhibitors for treatment of cancer” (TRUSTEES OF BOSTON UNIVERSITY, priority 2018, dated 2023).

Tests used:
Assay in all cases: biochemical
Format in all cases: binding
[1] = target: panel of 468 diverse kinases (Homo sapiens, UniProt O43683); conditions: BUB1; 1000 nM; read-out: Percent Control
[2] = target: panel of 468 diverse kinases (Homo sapiens, UniProt O60331); conditions: PIP5K1C; 1000 nM; read-out: Percent Control
[3] = target: panel of 468 diverse kinases (Homo sapiens, UniProt O94768); conditions: DRAK2; 1000 nM; read-out: Percent Control
[4] = target: panel of 468 diverse kinases (Homo sapiens, UniProt P07947); conditions: YES; 1000 nM; read-out: Percent Control
[5] = target: panel of 468 diverse kinases (Homo sapiens, UniProt P17612); conditions: PKAC-alpha; 1000 nM; read-out: Percent Control
[6] = target: panel of 468 diverse kinases (Homo sapiens, UniProt P24941); conditions: CDK2; 1000 nM; read-out: Percent Control
[7] = target: panel of 468 diverse kinases (Homo sapiens, UniProt P29317); conditions: EPHA2; 1000 nM; read-out: Percent Control
Chain of panel of 468 diverse kinases (Homo sapiens, UniProt P29317) (P29317 24-976 limits assumed): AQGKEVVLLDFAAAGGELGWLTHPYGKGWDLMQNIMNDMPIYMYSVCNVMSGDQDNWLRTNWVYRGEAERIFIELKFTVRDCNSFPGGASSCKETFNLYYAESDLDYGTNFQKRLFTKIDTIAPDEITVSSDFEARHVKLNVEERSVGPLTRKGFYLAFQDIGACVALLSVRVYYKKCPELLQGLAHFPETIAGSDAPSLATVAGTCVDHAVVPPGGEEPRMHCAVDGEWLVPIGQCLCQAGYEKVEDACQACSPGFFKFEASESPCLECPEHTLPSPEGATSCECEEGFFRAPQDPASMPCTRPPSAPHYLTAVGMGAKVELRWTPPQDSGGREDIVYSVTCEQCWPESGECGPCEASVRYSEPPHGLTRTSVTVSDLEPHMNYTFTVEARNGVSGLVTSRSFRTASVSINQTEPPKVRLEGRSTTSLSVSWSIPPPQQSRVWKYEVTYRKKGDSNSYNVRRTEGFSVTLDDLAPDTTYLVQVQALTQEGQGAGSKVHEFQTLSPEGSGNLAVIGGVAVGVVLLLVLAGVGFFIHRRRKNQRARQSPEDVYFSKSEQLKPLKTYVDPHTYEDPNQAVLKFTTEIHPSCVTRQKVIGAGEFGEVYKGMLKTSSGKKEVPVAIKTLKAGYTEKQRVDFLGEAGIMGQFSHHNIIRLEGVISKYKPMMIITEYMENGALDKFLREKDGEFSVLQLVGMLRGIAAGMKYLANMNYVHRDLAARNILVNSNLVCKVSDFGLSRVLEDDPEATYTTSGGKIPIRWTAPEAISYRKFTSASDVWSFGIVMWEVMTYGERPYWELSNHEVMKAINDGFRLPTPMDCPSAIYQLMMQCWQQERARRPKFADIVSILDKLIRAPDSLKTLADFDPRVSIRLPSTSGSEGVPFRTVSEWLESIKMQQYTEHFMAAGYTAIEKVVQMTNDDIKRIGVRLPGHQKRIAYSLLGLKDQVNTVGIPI

[8] = target: panel of 468 diverse kinases (Homo sapiens, UniProt P29320); conditions: EPHA3; 1000 nM; read-out: Percent Control
Chain of panel of 468 diverse kinases (Homo sapiens, UniProt P29320) (P29320 21-983 limits assumed): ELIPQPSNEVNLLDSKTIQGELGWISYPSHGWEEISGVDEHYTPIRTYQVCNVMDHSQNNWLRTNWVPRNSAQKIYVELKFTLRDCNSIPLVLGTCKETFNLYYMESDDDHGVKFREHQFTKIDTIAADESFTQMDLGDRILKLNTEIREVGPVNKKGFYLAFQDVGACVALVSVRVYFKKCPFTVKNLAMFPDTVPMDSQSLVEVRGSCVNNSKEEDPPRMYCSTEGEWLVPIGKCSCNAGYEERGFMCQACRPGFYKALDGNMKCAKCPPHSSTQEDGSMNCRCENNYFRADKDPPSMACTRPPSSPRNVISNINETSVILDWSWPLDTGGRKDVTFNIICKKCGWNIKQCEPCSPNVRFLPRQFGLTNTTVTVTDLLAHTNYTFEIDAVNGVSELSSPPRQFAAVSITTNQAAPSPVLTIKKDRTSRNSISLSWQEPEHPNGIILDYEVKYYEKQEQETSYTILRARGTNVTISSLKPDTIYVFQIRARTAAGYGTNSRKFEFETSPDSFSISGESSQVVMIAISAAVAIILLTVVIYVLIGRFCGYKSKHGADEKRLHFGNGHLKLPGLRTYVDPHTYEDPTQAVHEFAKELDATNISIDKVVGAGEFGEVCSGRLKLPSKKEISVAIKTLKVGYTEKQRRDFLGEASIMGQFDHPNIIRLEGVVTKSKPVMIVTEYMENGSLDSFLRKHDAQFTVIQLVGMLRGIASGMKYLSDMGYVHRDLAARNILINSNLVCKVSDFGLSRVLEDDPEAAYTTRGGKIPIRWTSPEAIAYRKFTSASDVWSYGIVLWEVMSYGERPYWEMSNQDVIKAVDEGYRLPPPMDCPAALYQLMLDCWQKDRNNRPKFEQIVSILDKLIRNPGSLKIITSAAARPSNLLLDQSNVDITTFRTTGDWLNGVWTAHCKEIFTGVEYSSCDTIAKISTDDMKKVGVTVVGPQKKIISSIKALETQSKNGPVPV

[9] = target: panel of 468 diverse kinases (Homo sapiens, UniProt P29376); conditions: LTK; 1000 nM; read-out: Percent Control
[10] = target: panel of 468 diverse kinases (Homo sapiens, UniProt P42336, E542K); conditions: PIK3CA(E542K); 1000 nM; read-out: Percent Control
[11] = target: panel of 468 diverse kinases (Homo sapiens, UniProt P42681); conditions: TXK; 1000 nM; read-out: Percent Control
[12] = target: panel of 468 diverse kinases (Homo sapiens, UniProt P46734); conditions: MEK3; 1000 nM; read-out: Percent Control
[13] = target: panel of 468 diverse kinases (Homo sapiens, UniProt P49674); conditions: CSNK1E; 1000 nM; read-out: Percent Control
[14] = target: panel of 468 diverse kinases (Homo sapiens, UniProt P49761); conditions: CLK3; 1000 nM; read-out: Percent Control
[15] = target: panel of 468 diverse kinases (Homo sapiens, UniProt P51813); conditions: BMX; 1000 nM; read-out: Percent Control
[16] = target: panel of 468 diverse kinases (Homo sapiens, UniProt P53355); conditions: DAPK1; 1000 nM; read-out: Percent Control
[17] = target: panel of 468 diverse kinases (Homo sapiens, UniProt P53778); conditions: p38-gamma; 1000 nM; read-out: Percent Control
[18] = target: panel of 468 diverse kinases (Homo sapiens, UniProt P78362); conditions: SRPK2; 1000 nM; read-out: Percent Control
[19] = target: panel of 468 diverse kinases (Homo sapiens, UniProt Q08881); conditions: ITK; 1000 nM; read-out: Percent Control
[20] = target: panel of 468 diverse kinases (Homo sapiens, UniProt Q12866); conditions: MERTK; 1000 nM; read-out: Percent Control
Chain of panel of 468 diverse kinases (Homo sapiens, UniProt Q12866) (Q12866 21-999 limits assumed): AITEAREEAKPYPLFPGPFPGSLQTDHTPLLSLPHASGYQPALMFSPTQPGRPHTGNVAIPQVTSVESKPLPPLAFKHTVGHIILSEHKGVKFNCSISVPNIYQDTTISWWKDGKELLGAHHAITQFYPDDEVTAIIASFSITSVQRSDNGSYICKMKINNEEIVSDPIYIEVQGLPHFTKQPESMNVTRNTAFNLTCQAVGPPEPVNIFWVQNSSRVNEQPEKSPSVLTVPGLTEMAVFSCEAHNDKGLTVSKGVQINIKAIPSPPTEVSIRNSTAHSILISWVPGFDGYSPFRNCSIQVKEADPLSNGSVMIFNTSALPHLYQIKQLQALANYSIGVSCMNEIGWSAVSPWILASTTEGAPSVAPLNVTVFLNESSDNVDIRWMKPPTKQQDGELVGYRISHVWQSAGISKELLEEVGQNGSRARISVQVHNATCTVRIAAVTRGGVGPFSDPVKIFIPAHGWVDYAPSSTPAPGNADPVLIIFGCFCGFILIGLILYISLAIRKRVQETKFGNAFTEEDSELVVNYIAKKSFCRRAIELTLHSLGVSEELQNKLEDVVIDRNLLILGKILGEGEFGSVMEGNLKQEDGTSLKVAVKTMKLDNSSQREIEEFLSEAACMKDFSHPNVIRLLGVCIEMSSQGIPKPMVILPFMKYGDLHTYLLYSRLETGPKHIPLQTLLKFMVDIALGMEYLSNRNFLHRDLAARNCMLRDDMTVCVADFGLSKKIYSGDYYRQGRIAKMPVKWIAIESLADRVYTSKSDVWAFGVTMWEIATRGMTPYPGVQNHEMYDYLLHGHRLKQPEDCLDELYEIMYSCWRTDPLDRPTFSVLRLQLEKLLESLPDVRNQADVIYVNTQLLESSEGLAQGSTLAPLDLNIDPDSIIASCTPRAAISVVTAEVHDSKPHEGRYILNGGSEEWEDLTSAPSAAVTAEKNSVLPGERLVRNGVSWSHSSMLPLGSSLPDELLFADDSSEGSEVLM

[21] = target: panel of 468 diverse kinases (Homo sapiens, UniProt Q13177); conditions: PAK2; 1000 nM; read-out: Percent Control
Chain of panel of 468 diverse kinases (Homo sapiens, UniProt Q13177) (Q13177 2-524 limits assumed): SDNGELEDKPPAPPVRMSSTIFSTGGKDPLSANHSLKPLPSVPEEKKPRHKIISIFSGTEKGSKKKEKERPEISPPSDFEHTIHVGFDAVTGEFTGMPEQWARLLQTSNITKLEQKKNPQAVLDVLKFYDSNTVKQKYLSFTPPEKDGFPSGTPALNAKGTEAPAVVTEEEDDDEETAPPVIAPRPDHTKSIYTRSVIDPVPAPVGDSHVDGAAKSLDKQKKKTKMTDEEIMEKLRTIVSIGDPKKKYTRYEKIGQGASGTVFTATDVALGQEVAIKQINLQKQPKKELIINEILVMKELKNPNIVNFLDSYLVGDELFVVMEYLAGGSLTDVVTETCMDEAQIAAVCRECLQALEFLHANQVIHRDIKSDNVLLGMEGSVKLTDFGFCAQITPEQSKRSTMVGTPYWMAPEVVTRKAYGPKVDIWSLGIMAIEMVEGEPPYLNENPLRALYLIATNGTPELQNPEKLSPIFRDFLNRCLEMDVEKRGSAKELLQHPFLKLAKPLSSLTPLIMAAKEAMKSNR

[22] = target: panel of 468 diverse kinases (Homo sapiens, UniProt Q14680); conditions: MELK; 1000 nM; read-out: Percent Control
[23] = target: panel of 468 diverse kinases (Homo sapiens, UniProt Q16620); conditions: TRKB; 1000 nM; read-out: Percent Control
Chain of panel of 468 diverse kinases (Homo sapiens, UniProt Q16620) (Q16620 32-822 limits assumed): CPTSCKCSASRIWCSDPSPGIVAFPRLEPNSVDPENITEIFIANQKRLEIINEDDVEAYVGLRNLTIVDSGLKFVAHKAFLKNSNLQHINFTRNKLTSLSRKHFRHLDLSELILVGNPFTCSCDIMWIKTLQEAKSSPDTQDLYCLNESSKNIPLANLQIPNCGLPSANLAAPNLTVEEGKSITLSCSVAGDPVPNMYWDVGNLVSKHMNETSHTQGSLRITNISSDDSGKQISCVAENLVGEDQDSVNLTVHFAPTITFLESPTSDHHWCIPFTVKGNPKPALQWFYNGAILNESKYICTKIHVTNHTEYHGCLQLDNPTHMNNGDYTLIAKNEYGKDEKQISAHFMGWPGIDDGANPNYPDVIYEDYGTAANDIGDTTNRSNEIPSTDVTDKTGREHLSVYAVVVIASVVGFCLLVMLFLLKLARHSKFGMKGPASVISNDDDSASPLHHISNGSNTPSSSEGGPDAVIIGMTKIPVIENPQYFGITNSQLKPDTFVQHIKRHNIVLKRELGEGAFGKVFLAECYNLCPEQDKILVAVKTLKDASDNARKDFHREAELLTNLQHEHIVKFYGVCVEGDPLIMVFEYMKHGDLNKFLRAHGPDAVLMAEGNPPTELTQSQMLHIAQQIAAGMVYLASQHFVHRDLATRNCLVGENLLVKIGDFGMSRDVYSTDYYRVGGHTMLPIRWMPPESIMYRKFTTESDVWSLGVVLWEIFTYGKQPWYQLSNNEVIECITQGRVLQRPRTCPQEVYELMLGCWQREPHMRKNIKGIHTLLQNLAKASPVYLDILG

[24] = target: panel of 468 diverse kinases (Homo sapiens, UniProt Q6P3R8); conditions: NEK5; 1000 nM; read-out: Percent Control
[25] = target: panel of 468 diverse kinases (Homo sapiens, UniProt Q86YV6); conditions: MYLK4; 1000 nM; read-out: Percent Control
[26] = target: panel of 468 diverse kinases (Homo sapiens, UniProt Q8TD08); conditions: ERK8; 1000 nM; read-out: Percent Control
[27] = target: panel of 468 diverse kinases (Homo sapiens, UniProt Q8TDX7); conditions: NEK7; 1000 nM; read-out: Percent Control
[28] = target: panel of 468 diverse kinases (Homo sapiens, UniProt Q9UL54); conditions: TAOK2; 1000 nM; read-out: Percent Control
[29] = target: panel of 468 diverse kinases (Homo sapiens, UniProt Q9UM73); conditions: ALK; 1000 nM; read-out: Percent Control
[30] = target: panel of 468 diverse kinases (Homo sapiens, UniProt Q9Y2H1); conditions: NDR2; 1000 nM; read-out: Percent Control
Chain of panel of 468 diverse kinases (Homo sapiens, UniProt Q9Y2H1) (Q9Y2H1 2-464 limits assumed): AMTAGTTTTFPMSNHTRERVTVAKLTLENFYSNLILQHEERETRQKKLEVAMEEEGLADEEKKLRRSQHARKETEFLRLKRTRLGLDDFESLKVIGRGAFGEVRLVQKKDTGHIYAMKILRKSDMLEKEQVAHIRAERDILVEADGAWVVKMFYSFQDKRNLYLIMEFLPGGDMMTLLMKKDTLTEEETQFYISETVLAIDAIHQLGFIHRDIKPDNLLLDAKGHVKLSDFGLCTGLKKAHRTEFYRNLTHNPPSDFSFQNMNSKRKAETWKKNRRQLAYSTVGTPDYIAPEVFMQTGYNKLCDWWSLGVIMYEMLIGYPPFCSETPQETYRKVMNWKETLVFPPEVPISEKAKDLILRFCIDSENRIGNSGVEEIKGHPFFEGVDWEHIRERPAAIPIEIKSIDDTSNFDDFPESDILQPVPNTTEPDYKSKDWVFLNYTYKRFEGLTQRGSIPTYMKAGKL

[31] = target: panel of 468 diverse kinases (Homo sapiens, UniProt Q9Y5S2); conditions: MRCKB; 1000 nM; read-out: Percent Control
[32] = target: panel of 468 diverse kinases (Homo sapiens, UniProt Q9Y6E0); conditions: MST3; 1000 nM; read-out: Percent Control

COc1cc2nc(NC3CC3)nc(NC3CCN(C(C)C)CC3)c2cc1OC [Formula IV]
remaining activity at 1 µM [1]: 63%
remaining activity at 1 µM [2]: 100%
remaining activity at 1 µM [3]: 79%
remaining activity at 1 µM [4]: 100%
remaining activity at 1 µM [5]: 85%
remaining activity at 1 µM [6]: 91%
remaining activity at 1 µM [7]: 100%
remaining activity at 1 µM [8]: 93%
remaining activity at 1 µM [9]: 82%
remaining activity at 1 µM [10]: 70%
remaining activity at 1 µM [11]: 98%
remaining activity at 1 µM [12]: 66%
remaining activity at 1 µM [13]: 100%
remaining activity at 1 µM [14]: 91%
remaining activity at 1 µM [15]: 100%
remaining activity at 1 µM [16]: 99%
remaining activity at 1 µM [17]: 78%
remaining activity at 1 µM [18]: 80%
remaining activity at 1 µM [19]: 96%
remaining activity at 1 µM [20]: 70%
remaining activity at 1 µM [21]: 63%
remaining activity at 1 µM [22]: 85%
remaining activity at 1 µM [23]: 48%
remaining activity at 1 µM [24]: 90%
remaining activity at 1 µM [25]: 93%
remaining activity at 1 µM [26]: 83%
remaining activity at 1 µM [27]: 89%
remaining activity at 1 µM [28]: 87%
remaining activity at 1 µM [29]: 61%
remaining activity at 1 µM [30]: 100%
remaining activity at 1 µM [31]: 92%
remaining activity at 1 µM [32]: 96%
